pEC50, pIC50: −log10 of the molar value. Values after ≈ are worked out from the molar mass of the structure shown.
How the values were obtained:
[1] = Permeability from basolateral to apical side in human Caco2 cells; format: ADME, cell-based; conditions: for Papp B→A: Caco-2, read-out: permeability; for permeability: Caco-2
[2] = Distribution coefficient between 1-octanol and aqueous phosphate buffer, logD of the compound in pH 7.4 buffer; format: physicochemical; conditions: 1-octanol/aqueous phosphate buffer
[3] = Permeability from apical to basolateral side in human Caco2 cells; format: ADME, cell-based; conditions: for Papp A→B: Caco-2, read-out: permeability; for permeability: Caco-2
[4] = target: T1, Nuclear receptor ROR-gamma (Homo sapiens, UniProt P51449)
T1 sequence (P51449 whole entry): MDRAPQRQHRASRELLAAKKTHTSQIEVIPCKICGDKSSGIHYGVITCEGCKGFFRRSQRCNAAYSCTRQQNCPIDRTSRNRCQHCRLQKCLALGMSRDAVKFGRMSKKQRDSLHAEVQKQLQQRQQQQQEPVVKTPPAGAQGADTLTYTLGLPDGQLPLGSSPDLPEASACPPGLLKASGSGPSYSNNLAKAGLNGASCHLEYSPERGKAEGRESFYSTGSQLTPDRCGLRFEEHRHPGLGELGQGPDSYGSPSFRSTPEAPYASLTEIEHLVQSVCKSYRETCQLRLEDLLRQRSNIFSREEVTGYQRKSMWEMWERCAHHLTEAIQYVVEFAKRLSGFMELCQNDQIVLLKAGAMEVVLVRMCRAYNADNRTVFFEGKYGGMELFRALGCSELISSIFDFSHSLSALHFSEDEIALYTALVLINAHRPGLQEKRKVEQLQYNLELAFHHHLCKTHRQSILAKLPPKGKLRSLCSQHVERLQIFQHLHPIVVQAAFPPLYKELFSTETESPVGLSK

[5] = target: T1, Nuclear receptor ROR-gamma; experiment: Inverse agonist activity at RORgammat in human TH17 cells assessed as inhibition of IL17 release incubated for 4 days by HTRF assay; format: cell-based
[6] = target: T1, Nuclear receptor ROR-gamma; remark: listed apart in the source
Description: Displacement of [3H]-2-(4-(ethylsulfonyl)phenyl)-N-(4-(2-(methoxymethyl)phenyl)thiophen-2-yl)acetamide from purified N-(HN)6-GST-TCS-human RORgammat (258 to 518 residues) incubated for 16 hrs by scintillation proximity assay

[7] = Permeability in human Caco2 cells assessed as drug recovery; format: ADME, cell-based; conditions: Caco-2, read-out: Drug recovery
physchem = conditions: aqueous buffer, pH 7.4
Description: Solubility in aqueous buffer at pH 7.4

[8] = Efflux ratio of permeability in human Caco2 cells; format: ADME, cell-based; conditions: Caco-2
[9] = Unbound fraction in human plasma by equilibrium dialysis; format: ADME, cell-free
[10] = Cytotoxicity in human Th17 cells assessed as effect on cell viability by cell-titer-Glo luminescent cell viability assay relative to control; format: cell-based; conditions: read-out: Efficacy
[11] = Intrinsic clearance in rat hepatocytes assessed per million cells; format: ADME, cell-based, Hepatocyte; conditions: read-out: CLH
[12] = Oral bioavailability in Han Wistar rat at 1 mg/kg; format: ADME, organism-based; conditions: in vivo
[13] = Intrinsic clearance in human hepatocytes assessed per million cells; format: ADME, cell-based, Hepatocyte; conditions: read-out: CLH
[14] = Selectivity index, ratio of cytotoxicity in human Th17 cells to IC50 for inverse agonist activity at RORgammat in human TH17 cells assessed as inhibition of IL17 release; format: toxicity, cell-based
[15] = Half life in Han Wistar rat at 0.5 mg/kg, iv or 1 mg/kg, po; format: ADME, organism-based; conditions: in vivo
[16] = Volume of distribution at steady state in Han Wistar rat at 0.5 mg/kg, iv or 1 mg/kg, po; format: ADME, organism-based; conditions: in vivo, read-out: Vdss
[17] = Oral absorption in Han Wistar rat at 1 mg/kg; format: ADME, organism-based; conditions: in vivo, read-out: Fabs
[18] = Clearance in Han Wistar rat at 0.5 mg/kg, iv or 1 mg/kg, po; format: ADME, organism-based; conditions: in vivo
hERG (KCNH2) = hERG (KCNH2) (Homo sapiens, UniProt Q12809); experiment: Inhibition of human ERG at 11 uM
[19] = target: T2, Nuclear receptor ROR-alpha (Homo sapiens, UniProt P35398); experiment: Inverse agonist activity at His6-tcs-human RORalpha LBD assessed as inhibition of biotinylated PGC1alpha (130 to 154 residues) peptide recruitment incubated for 1 hr by HTRF-FRET assay
T2 sequence (P35398 whole entry): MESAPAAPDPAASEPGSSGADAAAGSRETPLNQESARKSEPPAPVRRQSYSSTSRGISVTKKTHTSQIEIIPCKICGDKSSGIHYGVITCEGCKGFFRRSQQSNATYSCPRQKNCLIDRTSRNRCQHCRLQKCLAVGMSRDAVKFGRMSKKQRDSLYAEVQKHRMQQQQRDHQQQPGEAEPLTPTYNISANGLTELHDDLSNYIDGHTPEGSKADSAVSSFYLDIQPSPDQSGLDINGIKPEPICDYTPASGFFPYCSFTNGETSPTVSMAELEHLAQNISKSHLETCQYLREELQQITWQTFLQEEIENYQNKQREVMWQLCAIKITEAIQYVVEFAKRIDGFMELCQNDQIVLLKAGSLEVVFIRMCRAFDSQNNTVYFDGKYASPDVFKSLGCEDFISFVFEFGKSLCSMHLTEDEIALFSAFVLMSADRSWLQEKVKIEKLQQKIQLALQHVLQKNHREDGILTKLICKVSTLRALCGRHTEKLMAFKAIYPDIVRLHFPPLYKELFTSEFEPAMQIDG

[20] = target: T2, Nuclear receptor ROR-alpha; experiment: Agonist activity at His6-tcs-human RORalpha LBD assessed as stimulation of biotinylated PGC1alpha (130 to 154 residues) peptide recruitment incubated for 1 hr by HTRF-FRET assay; conditions: read-out: IC50 (the source's name)

Sequence of hERG (KCNH2) (Q12809 whole entry, the tested form may be a part): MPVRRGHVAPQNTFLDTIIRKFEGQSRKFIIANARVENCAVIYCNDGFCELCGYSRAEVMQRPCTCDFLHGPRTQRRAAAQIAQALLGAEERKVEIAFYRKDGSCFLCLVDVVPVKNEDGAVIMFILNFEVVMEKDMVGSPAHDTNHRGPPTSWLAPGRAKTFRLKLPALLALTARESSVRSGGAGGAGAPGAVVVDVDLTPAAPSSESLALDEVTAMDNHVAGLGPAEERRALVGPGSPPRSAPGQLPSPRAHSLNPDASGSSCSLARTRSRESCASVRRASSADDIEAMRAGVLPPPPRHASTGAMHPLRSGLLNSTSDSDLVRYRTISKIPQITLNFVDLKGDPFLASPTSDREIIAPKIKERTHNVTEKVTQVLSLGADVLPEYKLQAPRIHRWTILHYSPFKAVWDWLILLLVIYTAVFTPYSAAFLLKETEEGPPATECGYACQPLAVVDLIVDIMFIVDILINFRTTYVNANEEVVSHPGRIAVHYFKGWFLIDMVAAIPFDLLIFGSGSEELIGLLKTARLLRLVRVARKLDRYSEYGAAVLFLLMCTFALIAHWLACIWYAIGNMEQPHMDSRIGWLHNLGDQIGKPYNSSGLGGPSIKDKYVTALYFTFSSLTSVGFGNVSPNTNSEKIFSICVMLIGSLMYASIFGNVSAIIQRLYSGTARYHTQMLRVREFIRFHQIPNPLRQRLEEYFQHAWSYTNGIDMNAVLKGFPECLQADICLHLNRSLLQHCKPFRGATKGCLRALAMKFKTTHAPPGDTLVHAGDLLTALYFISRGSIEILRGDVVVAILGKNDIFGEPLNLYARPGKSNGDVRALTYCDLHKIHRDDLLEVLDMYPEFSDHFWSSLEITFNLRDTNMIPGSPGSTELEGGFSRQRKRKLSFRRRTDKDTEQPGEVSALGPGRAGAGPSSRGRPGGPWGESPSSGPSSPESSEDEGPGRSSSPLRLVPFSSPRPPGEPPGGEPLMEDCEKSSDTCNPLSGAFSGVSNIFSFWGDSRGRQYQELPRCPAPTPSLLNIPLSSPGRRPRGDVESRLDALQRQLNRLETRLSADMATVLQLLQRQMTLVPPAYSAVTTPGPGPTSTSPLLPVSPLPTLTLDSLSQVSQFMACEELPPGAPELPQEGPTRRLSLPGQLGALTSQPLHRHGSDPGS

Structure (SMILES)	Papp B→A [1] [×10⁻⁶ cm/s]	logD [2]	Papp A→B [3] [×10⁻⁶ cm/s]	pIC50 [4]	pIC50 [5]	pIC50 [6]	recovery [7] [%]	solubility (physchem) [µM]	fraction unbound [9]	Emax [10] [%]	hepatocyte CLint [11] [µL/min/1e6 cells]	also measured
CCS(=O)(=O)c1ccc(CC(=O)Nc2cc(-c3cccc(Cl)c3)c(C(=O)c3ccccc3Cl)s2)cc1	0.6	4.5	< 0.001	7.64	8.22	8.70	52	< 0.1	< 0.002	40	–	efflux ratio [8]: > 324
CCS(=O)(=O)c1ccc(CC(=O)Nc2cc(-c3cccnc3OCc3cccc(C#N)c3)cs2)cc1	–	≥ 4	–	–	–	7.72	–	–	–	50	281	–
CCS(=O)(=O)c1ccc(CC(=O)Nc2cc(-c3cc(C#N)cc(F)c3OC)cs2)cc1	7.1	3.9	1.8	7.52	6.15	7.70	41	0.4 to 0.6 (≈ 0.183 to 0.275 µg/mL)	0.0017 to 0.002	60	11.3	bioavailability [12]: 85%; hepatocyte CLint [13]: 5.6 µL/min/1e6 cells; selectivity ratio [14]: < 10; half-life [15]: 1.2 h; Vd [16]: 0.48 L/kg; Fa [17]: 92%; clearance [18]: 5.5 mL/min/kg; inhibition at 11 µM (hERG (KCNH2)): 43%; efflux ratio [8]: 3.9
CCS(=O)(=O)c1ccc(CC(=O)Nc2cc(-c3cccnc3OC/C=C/c3ccccc3)cs2)cc1	–	≥ 4	–	7.54	7.60	7.96	–	–	–	40	45	selectivity ratio [14]: 100
CCS(=O)(=O)c1ccc(CC(=O)Nc2cc(-c3cc(C#N)cnc3OC)cs2)cc1	–	3.5	–	7.40	< 5.48	7.52	44	–	0.0009	–	–	permeability [1]: 17.1 ×10⁻⁶ cm/s; permeability [3]: 2.6 ×10⁻⁶ cm/s
CCS(=O)(=O)c1ccc(CC(=O)Nc2cc(-c3cccnc3OCCc3ccccc3)cs2)cc1	–	≥ 4	–	–	–	7.54	–	–	–	70	125	–
CCS(=O)(=O)c1ccc(CC(=O)Nc2cc(-c3cccnc3OCc3ccc(C#N)cc3)cs2)cc1	–	≥ 4	–	7.52	7.00	8.00	–	–	–	50	286	–
CCS(=O)(=O)c1ccc(CC(=O)Nc2cc(-c3cccnc3Oc3ccccc3)cs2)cc1	–	≥ 4	–	–	–	7.34	–	–	–	50	196	–
CCS(=O)(=O)c1ccc(CC(=O)Nc2cc(-c3cccnc3OCc3ccc(C(=O)OC)cc3)cs2)cc1	–	≥ 4	–	7.68	7.46	7.85	–	–	–	–	> 300	selectivity ratio [14]: 100
CCS(=O)(=O)c1ccc(C(NC(C)=O)C(=O)Nc2cc(-c3cc(C#N)cc(F)c3OC)cs2)cc1 (stereo not given)	18	3.3	0.3	–	–	–	–	200 (≈ 103 µg/mL)	–	–	–	bioavailability [12]: 18%; Vd [16]: 0.34 L/kg; Fa [17]: 19%
CCS(=O)(=O)c1ccc(CC(=O)Nc2cc(-c3cccnc3Oc3ccc(OC(F)(F)F)cc3)cs2)cc1	–	–	–	–	6.84	7.48	–	2.5 (≈ 1.41 µg/mL)	< 0.001	–	20	bioavailability [12]: 45%; permeability [1]: Impermeable; permeability [3]: Impermeable; hepatocyte CLint [13]: 11.9 µL/min/1e6 cells; half-life [15]: 1.6 h; Vd [16]: 2.8 L/kg; Fa [17]: 67%; clearance [18]: 24 mL/min/kg; inhibition at 11 µM (hERG (KCNH2)): 14%; Ratio [8]: Impermeable; pIC50 [19]: < 4.48; pEC50 [20]: < 4.48
CNS(=O)(=O)c1ccc(CC(=O)Nc2cc(-c3cc(C#N)cnc3OC)cs2)cc1	26	3.5	0.65	7.40	< 5.48	7.15	55	0.34 (≈ 0.15 µg/mL)	< 0.001	–	–	efflux ratio [8]: 40
CCS(=O)(=O)c1ccc(CC(=O)Nc2cc(-c3cc(C#N)ccc3OC)cs2)cc1	12	3.6	1.6	7.52	< 5.48	7.70	41	0.43 (≈ 0.189 µg/mL)	0.001	–	–	efflux ratio [8]: 7.6
CCCOc1ncccc1-c1csc(NC(=O)Cc2ccc(S(=O)(=O)CC)cc2)c1	–	≥ 4	–	–	–	7.23	–	–	–	40	80	–
CCS(=O)(=O)c1ccc(CC(=O)Nc2cc(-c3cccnc3OCCCc3ccccc3)cs2)cc1	–	≥ 4	–	–	< 5.48	7.77	–	–	–	30	104	–
CCS(=O)(=O)c1ccc(CC(=O)Nc2cc(-c3cccnc3OCc3ccccc3)cs2)cc1	–	> 4	–	–	–	7.70	–	0.42 (≈ 0.207 µg/mL)	0.0003	30	128	selectivity ratio [14]: < 10
